pIC50: −log10 of the molar value.

36 molecules from the Kinase Knowledgebase extract (Sharma et al. 2016) can be followed below.

Sequence of EGFR (P00533 whole entry, looked up): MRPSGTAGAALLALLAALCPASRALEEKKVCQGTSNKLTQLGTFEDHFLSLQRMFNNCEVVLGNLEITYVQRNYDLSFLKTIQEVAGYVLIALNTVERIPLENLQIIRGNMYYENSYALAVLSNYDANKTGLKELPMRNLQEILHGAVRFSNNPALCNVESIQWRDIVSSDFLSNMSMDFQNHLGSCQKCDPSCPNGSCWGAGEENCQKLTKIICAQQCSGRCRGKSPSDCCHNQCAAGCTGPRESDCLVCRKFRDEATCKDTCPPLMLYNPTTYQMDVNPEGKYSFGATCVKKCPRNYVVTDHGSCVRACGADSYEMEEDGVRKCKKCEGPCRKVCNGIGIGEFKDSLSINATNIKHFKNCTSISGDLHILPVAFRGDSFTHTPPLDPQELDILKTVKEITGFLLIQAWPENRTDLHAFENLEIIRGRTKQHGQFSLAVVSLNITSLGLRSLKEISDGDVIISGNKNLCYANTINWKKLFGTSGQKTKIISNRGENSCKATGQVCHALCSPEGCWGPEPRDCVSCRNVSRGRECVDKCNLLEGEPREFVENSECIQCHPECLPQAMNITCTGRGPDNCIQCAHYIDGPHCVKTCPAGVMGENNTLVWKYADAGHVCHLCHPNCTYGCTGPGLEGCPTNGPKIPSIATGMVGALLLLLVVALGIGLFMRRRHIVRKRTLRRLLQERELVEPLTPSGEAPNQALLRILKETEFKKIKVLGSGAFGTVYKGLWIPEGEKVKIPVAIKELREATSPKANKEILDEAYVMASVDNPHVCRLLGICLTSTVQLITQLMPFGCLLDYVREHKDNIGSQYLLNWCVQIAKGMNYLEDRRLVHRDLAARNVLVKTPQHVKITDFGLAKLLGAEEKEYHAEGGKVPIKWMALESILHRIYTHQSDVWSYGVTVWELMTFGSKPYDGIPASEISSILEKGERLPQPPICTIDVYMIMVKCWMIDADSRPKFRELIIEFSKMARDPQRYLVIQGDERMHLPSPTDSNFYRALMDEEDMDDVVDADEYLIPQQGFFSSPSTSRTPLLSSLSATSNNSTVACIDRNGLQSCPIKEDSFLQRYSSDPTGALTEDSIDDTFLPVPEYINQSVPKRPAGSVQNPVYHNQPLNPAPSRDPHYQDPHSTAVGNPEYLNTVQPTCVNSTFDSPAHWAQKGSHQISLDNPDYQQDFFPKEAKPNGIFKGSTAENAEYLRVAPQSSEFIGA

The test has as its target EGFR (UniProt P00533).
Turning to `Brc1cccc(Nc2ncnc3cc(NCCCn4ccnc4)ncc23)c1`, the pIC50 (as a rule, −log10 of the IC50, conventionally taken in molar units) was 9.29.

As to `OCCN(CCO)CCCNc1cc2ncnc(Nc3cccc(Br)c3)c2cn1`, the pIC50 is 8.92.

In the case of `COc1cccc(Nc2ncnc3cc(N)ncc23)c1`, the pIC50 is 6.88.

In the case of `CN(C)CCCCCNc1cc2ncnc(Nc3cccc(Br)c3)c2cn1`, the pIC50 was 8.07.

Consider `OCCN(CCO)c1cc2ncnc(Nc3cccc(Br)c3)c2cn1`, for which the pIC50 was 7.92.

For `Cc1cccc(Nc2ncnc3cc(NCCCCN(C)C)ncc23)c1`, the pIC50 is 8.26.

Consider `Brc1cccc(Nc2ncnc3cc(NCCN4CCOCC4)ncc23)c1`, for which the pIC50 is 8.49.

Consider `O=C(O)CCNc1cc2ncnc(Nc3cccc(Br)c3)c2cn1`, for which the pIC50 is 9.21.

`Fc1ccc2c(Nc3cccc(Br)c3)ncnc2n1`: the pIC50 was 6.16.

Turning to `OCCN(CCO)CCNc1cc2ncnc(Nc3cccc(Br)c3)c2cn1`, the pIC50 is 8.03.

The molecule `CN(CCO)c1cc2ncnc(Nc3cccc(Br)c3)c2cn1` showed a pIC50 of 8.59.

`CN(C)CCNc1cc2ncnc(Nc3cccc(Br)c3)c2cn1` had a pIC50 of 7.34.

Molecule `OCC(O)CNc1cc2ncnc(Nc3cccc(Br)c3)c2cn1` (stereo unspecified) showed a pIC50 of 9.03.

Molecule `CN(CC(=O)O)c1cc2ncnc(Nc3cccc(Br)c3)c2cn1` gave a pIC50 of 7.79.

In turn, `Brc1cccc(Nc2ncnc3cc(NCCCCN4CCOCC4)ncc23)c1` showed a pIC50 of 8.26.

Turning to `CN(C)CCN(C)c1cc2ncnc(Nc3cccc(Br)c3)c2cn1`, the pIC50 is 7.40.

`Brc1cccc(Nc2ncnc3cnc(NCCN4CCOCC4)nc23)c1` gave a pIC50 of 9.09.

`Brc1cccc(Nc2ncnc3cnc(NCCc4c[nH]cn4)nc23)c1` gave a pIC50 of 9.60.

Molecule `Brc1cccc(Nc2ncnc3cc(NCCc4c[nH]cn4)ncc23)c1` showed a pIC50 of 9.04.

`O=S(=O)(O)CCNc1cc2ncnc(Nc3cccc(Br)c3)c2cn1` had a pIC50 of 8.85.

Regarding `Brc1cccc(Nc2ncnc3cc(NCCCN4CCOCC4)ncc23)c1`, the pIC50 is 8.72.

Regarding `CN(CC(O)CO)c1cc2ncnc(Nc3cccc(Br)c3)c2cn1` (stereo unspecified), the pIC50 was 8.49.

Take `CN(C)CCCCNc1cc2ncnc(Nc3cccc(Br)c3)c2cn1`: the pIC50 was 8.13.

For the molecule `NNc1cc2ncnc(Nc3cccc(Br)c3)c2cn1`, the pIC50 is 8.14.

Molecule `O=C(O)CNc1cc2ncnc(Nc3cccc(Br)c3)c2cn1` gave a pIC50 of 8.82.

The molecule `Cc1cccc(Nc2ncnc3cc(NCCCn4ccnc4)ncc23)c1` gave a pIC50 of 8.46.

The molecule `OCCNc1cc2ncnc(Nc3cccc(Br)c3)c2cn1` showed a pIC50 of 9.60.

With `OCN(CO)c1cc2ncnc(Nc3cccc(Br)c3)c2cn1`, the pIC50 was 7.85.

`COc1cc2ncnc(Nc3cccc(Br)c3)c2cn1` showed a pIC50 of 7.40.

Consider `Nc1cc2ncnc(Nc3ccc(Br)cc3)c2cn1`, for which the pIC50 is 7.59.

`O=C(O)CCCNc1cc2ncnc(Nc3cccc(Br)c3)c2cn1` had a pIC50 of 9.55.

`Cc1cccc(Nc2ncnc3cc(NCCCN4CCN(C)CC4)ncc23)c1` gave a pIC50 of 8.25.

The molecule `CNc1ccc2ncnc(Nc3cccc(Br)c3)c2n1` showed a pIC50 of 8.49.

`CN(C)CCCNc1cc2ncnc(Nc3cccc(Br)c3)c2cn1`: the pIC50 was 8.05.

In turn, `CC(=O)Nc1cc2ncnc(Nc3cccc(Br)c3)c2cn1` gave a pIC50 of 7.53.

`CN1CCN(CCCNc2cc3ncnc(Nc4cccc(Br)c4)c3cn2)CC1`: the pIC50 was 8.30.
